# Test results as given in PMC6222636, “Determination of Novel Highly Effective Necrostatin Nec-1s in Rat Plasma by High Performance Liquid Chromatography Hyphenated with Quadrupole-Time-of-Flight Mass Spectrometry” (Molecules : A Journal of Synthetic Chemistry and Natural …, 2018).
# Values joined by “and” are separate entries in the source; they are usually repeats but may differ in a detail not shown here. Equal entries are not always repeated. Where two headings read alike, the source gives them in different places.
# Columns and labels:
# [1] = test system: indoleamine 2,3-dioxygenase (IDO); design: method as in PMID 23190609; settings: cited from earlier work
# [2] = test system: receptor interacting protein 1 (RIP1); settings: cited from earlier work; for IC50: RIP1 inhibitor potency
# [3] = test system: abdominal aortic aneurisms (elastase perfusion); design: method as in PMID 28186202; settings: mice with aneurysm induced by elastase perfusion, cited from earlier work
# [4] = design: method as in PMID 23190609; settings: cited from earlier work
# [5] = Nec-1s plasma levels in rats by HPLC-Q-TOF after i.v. bolus; format: in vivo, male Wistar rats; settings: for concentration at 50 min: male, Wistar, rat, plasma, iv, 0.37 mg/kg
# Experimental: The developed and validated HPLC-Q-TOF method was applied for the determination of real plasma concentrations of Nec-1s in 5 male Wistar rats after i.v. administration of a bolus dose of Nec-1s (0.37 mg/kg). The samples taken from each subject were prepared and analyzed in triplicate. […] The measured data were consistent to each other with plasma concentrations in the range of 319.81–466.52 nM, and mean value of 377.26 nM. The differences in the found concentrations can be explained by different metabolism in the studied animals.
# A total of 11 male Wistar rats (250–300 g body weight) were housed under standard conditions with a controlled light/dark cycle (12/12 h) and temperature (22 °C ± 2 °C), and fed a standard diet and tap water ad libitum. The anesthetized animals (natrium pentobarbital 60 mg/kg, i.p.) were randomized in two groups to receive either vehicle (C, n = 6) or Nec-1s (N, n = 5) and blood was collected from the abdominal aorta 50-min after drug application (a bolus dose; 0.37 mg/kg, i.v.; diluted in 20% v/v DMSO) into EDTA-containing syringes (S-Monovette, Starstedt, Germany). To obtain plasma, the blood was centrifuged at 4 °C for 15 min at 4000× g. The aliquots of plasma were stored at −80 °C until further procedure.
# An aliquot of plasma was thawed at laboratory temperature. Afterwards, the rat plasma (180 µL) was mixed with the internal standard solution (20 µL, 1.25 µg/mL of prednisone in 50% (v/v) methanol). […] The precipitated sample was vortexed for 5 min (2400 rpm) and then centrifuged for 10 min (15000× g; 4 °C). After the centrifugation, 800 µL of supernatant was transferred into another tube and evaporated to dryness under a gentle stream of nitrogen at ambient temperature. The residuals were reconstituted with 100 µL of mobile phase (25:75 mixture of acetonitrile and water containing 0.1% formic acid) and an aliquot of the solution (5 µL) was used for the HPLC-DAD-Q-TOF analysis.
# All of the analyses were carried out on the chromatographic apparatus consisting of LC Agilent Infinity System (Agilent Technologies, Santa Clara, CA, USA) equipped with a gradient pump (1290 Bin Pump VL), an automatic injector (1260 HiPals), and column thermostat (1290 TCC; set at 4 °C). The LC system was hyphenated with a photodiode array detector (Infinity 1290 DAD), and quadrupole time-of-flight (Q-TOF) mass spectrometer (Agilent 6520 Accurate-Mass Q-TOF LC/MS) equipped with the electrospray ionization (ESI) source operated in a positive ionization mode. A computer with a MassHunter software (version MassHunter Workstation B.05.01, Agilent Technologies) was used to control the apparatus as well as acquire and process the data. The Q-TOF mass spectrometer was operated under following parameters: drying gas temperature 360 °C, drying gas flow 12 L/min, nebulizing gas pressure 60 psi, capillary voltage 5500 V, fragmentor voltage 125 V, skimmer voltage 65 V, OctopoleRFPeak 550 V, and collision gas N2. […] In the processing the exact (theoretical) masses of their [M + H]^+ (278.0691 for Nec-1s; 359.1853 for prednisone), and [M + Na]^+ (300.0510 for Nec-1s; 381.1672 for prednisone) adducts were used. For the MS spectra obtained by the analysis of the stock solutions of Nec-1s and prednisone see Figure 4. The theoretical and experimentally found masses of the Nec-1s and prednisone adducts were in a very good mutual agreement so that Q-TOF was suitable for an unambiguous confirmation of the identity of the analyzed compounds in the samples. The EIC were extracted with m/z expansion of ±10 ppm. In case of DAD detector, the peak areas of the analyte and IS were evaluated at the wavelength of 280 nm.
# The chromatographic separation of the Nec-1s was achieved by using RP-C18 chromatographic column–Zorbax Extend-C18, 2.1 × 50 mm, 1.8 µm obtained from Agilent Technologies. A gradient elution of mobile phases consisting of 0.1% formic acid in LC-MS water (A) and 0.1% formic acid in acetonitrile (B) was used. […]
# [6] = design: method as in PMID 23190609; settings: cited from earlier work; remark: listed apart in the source
# [7] = test system: receptor interacting protein 1 (RIP1); assay: RIP1 inhibition (necrostatin potency); format: biochemical; settings: Nec-1s vs Nec-1
# [8] = design: method as in PMID 28946210; settings: rat plasma, cited from earlier work
# [9] = individual rats N1-N5, 50 min after i.v. bolus dose 0.37 mg/kg, n = 3 analyses
SMILES,effect on IDO [1],capability to inhibit RIP1 [2],IC50 [2],"aortic expansion ([3]; control 172.80%, p < 0.05)",metabolic stability in comparison to Nec-1 [4],"Plasma Concentration (nM) [5, 9]","Plasma Concentration (ng/mL) [5, 9]","concentration at 50 min ([5]; 50 min after i.v. bolus dose 0.37 mg/kg, 5 male Wistar rats, read-out: plasma concentration, mean value of 5 rats)","concentration at 50 min ([5]; 50 min after i.v. bolus dose 0.37 mg/kg, 5 male Wistar rats, read-out: plasma concentrations, range over 5 rats)","concentration at 50 min ([5]; individual rats N1-N5, 50 min after i.v. bolus dose 0.37 mg/kg, n = 3 analyses, read-out: Plasma Concentration)","concentration at 50 min ([5]; individual rats N1-N5, 50 min after i.v. bolus dose 0.37 mg/kg, n = 3 analyses, read-out: Plasma Concentration (ng/mL))",in vivo and in vitro toxicity compared with Nec-1 [6],inhibition activity relative to Nec-1 [7],aortic diameter vs control ([3]; p = 0.1),"concentration level at 5 min after i.v. administration ([8]; i.v., 5 min)","concentration level at 1 h after i.v. administration ([8]; i.v., 1 h)","concentration level at 8 h after i.v. administration ([8]; i.v., 8 h)","concentration after 8 h, oral administration ([8]; oral, after 8 h)",peak concentration after oral administration ([8]; oral),time of peak concentration after oral administration ([8]; oral)
O=C1NC(=S)NC1Cc1c[nH]c2ccccc12 (centres unmarked) [Nec-1i],found to be an IDO inhibitor,lacking the capability to inhibit RIP1,–,–,–,–,–,–,–,–,–,–,–,–,–,–,–,–,–,–
"CN1C(=O)NC(Cc2c[nH]c3c(Cl)cccc23)C1=O (centres unmarked) [Nec-1s, 5-((7-chloro-1H-indol-3-yl)methyl)-3-methyl-2,4-imidazolidinedione]",does not influence IDO,–,210 nM,64.12%,metabolically more stable,327.43 nM and 398.08 nM and 319.81 nM and 466.52 nM,90.93 ng/mL and 110.55 ng/mL and 88.81 ng/mL and 129.56 ng/mL,377 nM,320 to 467 nM,374 nM,104 ng/mL,reduced,2 times,–,–,–,–,–,–,–
"CN1C(=O)C(Cc2c[nH]c3ccccc23)NC1=S (centres unmarked) [Nec-1, 5-(indol-3-ylmethyl)(2-thio-3-methyl)hydantoin]","concomitant inhibition of indoleamine 2,3-dioxygenase (IDO)",–,494 nM,–,–,–,–,–,–,–,–,–,–,smaller but the difference was not statistically significant,1733 ng/mL,617 ng/mL,< 100 ng/mL,undetectable,648 ng/mL,1 h
